Assay results published in patent US20240173329A1, “BELVARAFENIB FOR USE IN TREATMENT OF BRAIN CANCERS” (Genentech, Inc., priority 2021, published 2024).
pIC50: −log10 of the molar value.

Assays:
[1] = system: A375SM-Luc cells harboring the BRAF^V600 mutation; assay: A375SM_Luc cell brain metastasis mouse model; type: in vivo; settings: for mOS (median overall survival): vehicle 24.5 days; for day from which clinical signs of debility due to tumor growth occurred: vehicle after day 11
Procedure: The mouse strain was BALB/c Nude (nu/nu) produced and supplied by Orient Bio Inc., Korea.
The mice were kept in conventional animal lab cages for at least one week for acclimation before the start of the experiment. The cages were polysulfone 1291H (W425×D266×H185 mm, Techniplast, Italy). Eight mice were housed in each cage at a temperature of 22±2° C., a relative humidity of 50±20%, a ventilation frequency of 10-15 times/h, a 12 hour light/dark cycle, a light intensity of 150-300 Lux, at least weekly cage replacement. The mice were fed ad libitum Picolab Rodent diet (5053, Lab Diet, USA). Tap water was given ad libitum following UV irradiation and filtration.
The cancer cell line was A375SM-Luc harboring the BRAF^V600 mutation. That cell line was deemed suitable for the efficacy study of RAF inhibitors against BRAF^V600 in melanoma.
The A375SM-Luc cell line was established as follows. A375SM cells were seeded into 24 well clear flat-bottomed plates with 2.5×10^5 cells/well in MEM medium (Gibco, USA) supplemented with 10% FBS (Gibco, USA). The next day, CMV-Firefly luciferase lentivirus (Cellomics Inc., USA) was diluted in complete medium containing 8 μg/mL polybrene (Sigma Aldrich, St. Louis MO, USA). Cells were centrifuged in the prepared medium for 90 minutes at 800×g, followed by incubation in fresh medium for 2 to 3 days. Stable clones were selected using puromycin, and individual clones were screened for luciferase activity be measuring their light emission with the IVIS® Lumina Series III In Vivo Imaging System (PerkinElmer Inc., USA) after adding 10 μL (15 mg/mL) D-Luciferin (Gold Biotechnology, USA). The in vitro media was MEM 10% FBS. The in vitro culture condition was incubation at 5% CO2 at 37° C.
The in vivo cell inoculation was as follows. Mice were anesthetized by intraperitoneal (i.p.) injection of 30 mg/kg Zoletil 50 (Virbac, France) and 10 mg/kg Rompun (Bayer Korea, Korea). Five thousand cells suspended in 10 μL phosphate buffered saline were intracranially injected into the right frontal hemisphere (AP+2.0, ML−1.0, DV+2.0 from the bregma) using a stereotactic fixation device (David Kopf Instruments, USA). Mouse models were produced over two days.
The mice were randomized by their tumor burden by BLI (8 mice per group) after 6-7 days from inoculation (implantation). The mice were then dosed with belvarafenib dihydrochloride, 99.6% purity, that was stored at room temperature. Dosing was based on active ingredient free base and was corrected for assay and water content. The dosing vehicle was DMSO (5%), cremophore EL (5%), and deionized water (90%). Belvarafenib for dosing was dissolved in the vehicle.
Belvarafenib (in groups 2 and 3) and vehicle (in group 1) were dosed at 10 mL/kg (p.o.) once per day (QD) for a duration of 102 days.
Body weight measurement was performed twice a week during the dosing period. Relative body weight (%) was calculated by: body weight Day X (g)/initial body weight (g)×100 (Day X=body weight measurement day). Tumor burden was measured by bioluminescence imaging (BLI) using a IVIS® Lumina Series III In Vivo Imaging System (PerkinElmer Inc., USA) each week. […] Kaplan-Meier survival curves showing prolonged survival of mice of groups 1 to 3 were plotted from the date of drug administration. The median overall survival rate (mOS) was the amount of time after which 50% of the mice had died and 50% had survived.
The data were expressed as means±standard error of the mean (SEM). Statistical analysis was conducted by GraphPad PRISM® Version 6 (GraphPad Software, USA). […] was conducted to evaluate significant differences between the groups. A p value less than 0.05 was considered statistically significant.
Mice were intraperitoneally injected with 15 mg/mL of D-Luciferin on each of days 1, 5, 12, 19, 26, 33, 40, 47, 54, 61, 68, 75, 82, 89, 96, and 103 and evaluated with BLI imaging with an IVIS® Lumina Series III In Vivo Image System (PerkinElmer Inc., USA).

EPHB2 = target: T1, EPHB2 (Homo sapiens, UniProt P29323); assay: panel of 189 kinase assays; type: biochemical
T1 sequence (P29323 19-1055): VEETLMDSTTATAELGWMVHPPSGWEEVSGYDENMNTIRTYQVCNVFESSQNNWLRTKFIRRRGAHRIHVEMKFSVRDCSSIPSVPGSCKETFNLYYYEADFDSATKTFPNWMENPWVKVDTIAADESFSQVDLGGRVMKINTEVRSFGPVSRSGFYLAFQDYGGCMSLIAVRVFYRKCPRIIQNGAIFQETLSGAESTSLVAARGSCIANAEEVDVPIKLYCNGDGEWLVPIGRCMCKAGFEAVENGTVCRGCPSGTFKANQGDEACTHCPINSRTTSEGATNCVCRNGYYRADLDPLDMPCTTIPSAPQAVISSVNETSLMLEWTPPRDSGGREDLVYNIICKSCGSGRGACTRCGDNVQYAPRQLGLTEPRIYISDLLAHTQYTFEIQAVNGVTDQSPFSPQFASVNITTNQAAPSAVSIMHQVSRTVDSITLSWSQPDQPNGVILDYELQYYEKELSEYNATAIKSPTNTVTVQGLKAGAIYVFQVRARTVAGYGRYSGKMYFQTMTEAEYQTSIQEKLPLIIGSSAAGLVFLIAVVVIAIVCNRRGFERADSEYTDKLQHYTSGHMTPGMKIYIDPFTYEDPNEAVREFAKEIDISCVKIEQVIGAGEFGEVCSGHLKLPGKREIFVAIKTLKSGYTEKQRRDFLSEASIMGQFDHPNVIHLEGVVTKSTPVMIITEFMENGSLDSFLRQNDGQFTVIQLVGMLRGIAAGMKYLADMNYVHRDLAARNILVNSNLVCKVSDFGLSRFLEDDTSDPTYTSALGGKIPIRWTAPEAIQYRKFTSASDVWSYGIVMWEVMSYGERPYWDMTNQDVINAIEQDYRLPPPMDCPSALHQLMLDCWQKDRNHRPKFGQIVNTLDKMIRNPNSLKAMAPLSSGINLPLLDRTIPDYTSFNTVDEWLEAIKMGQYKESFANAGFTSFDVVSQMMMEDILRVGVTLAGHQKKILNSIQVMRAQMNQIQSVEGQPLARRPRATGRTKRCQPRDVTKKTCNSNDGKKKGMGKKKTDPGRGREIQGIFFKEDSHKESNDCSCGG

RAF-1 (CRAF) = RAF-1 (CRAF) (Homo sapiens, UniProt P04049); assay: RAF kinase inhibition in vitro; type: biochemical
RAF-1 (CRAF), sequence (P04049 whole entry): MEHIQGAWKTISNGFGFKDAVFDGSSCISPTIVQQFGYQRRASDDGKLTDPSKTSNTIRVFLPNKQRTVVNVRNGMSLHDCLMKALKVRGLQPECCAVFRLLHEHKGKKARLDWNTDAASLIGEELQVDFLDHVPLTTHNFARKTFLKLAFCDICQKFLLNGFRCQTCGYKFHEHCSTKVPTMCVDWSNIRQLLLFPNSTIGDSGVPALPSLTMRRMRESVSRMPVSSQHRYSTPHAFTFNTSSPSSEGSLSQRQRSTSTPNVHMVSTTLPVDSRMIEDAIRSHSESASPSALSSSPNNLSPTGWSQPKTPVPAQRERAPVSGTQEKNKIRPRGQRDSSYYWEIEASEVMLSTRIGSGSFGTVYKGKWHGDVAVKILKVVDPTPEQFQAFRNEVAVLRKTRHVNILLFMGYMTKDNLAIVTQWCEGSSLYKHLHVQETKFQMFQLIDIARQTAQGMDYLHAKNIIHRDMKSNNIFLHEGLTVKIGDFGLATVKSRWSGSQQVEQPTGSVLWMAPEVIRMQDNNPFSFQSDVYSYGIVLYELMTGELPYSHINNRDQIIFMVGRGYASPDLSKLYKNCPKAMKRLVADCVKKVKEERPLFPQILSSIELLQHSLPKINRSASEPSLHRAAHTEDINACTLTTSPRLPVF

EPHA2 = EPHA2 (Homo sapiens, UniProt P29317); assay: panel of 189 kinase assays; type: biochemical
EPHA2, sequence (P29317 24-976, species assumed): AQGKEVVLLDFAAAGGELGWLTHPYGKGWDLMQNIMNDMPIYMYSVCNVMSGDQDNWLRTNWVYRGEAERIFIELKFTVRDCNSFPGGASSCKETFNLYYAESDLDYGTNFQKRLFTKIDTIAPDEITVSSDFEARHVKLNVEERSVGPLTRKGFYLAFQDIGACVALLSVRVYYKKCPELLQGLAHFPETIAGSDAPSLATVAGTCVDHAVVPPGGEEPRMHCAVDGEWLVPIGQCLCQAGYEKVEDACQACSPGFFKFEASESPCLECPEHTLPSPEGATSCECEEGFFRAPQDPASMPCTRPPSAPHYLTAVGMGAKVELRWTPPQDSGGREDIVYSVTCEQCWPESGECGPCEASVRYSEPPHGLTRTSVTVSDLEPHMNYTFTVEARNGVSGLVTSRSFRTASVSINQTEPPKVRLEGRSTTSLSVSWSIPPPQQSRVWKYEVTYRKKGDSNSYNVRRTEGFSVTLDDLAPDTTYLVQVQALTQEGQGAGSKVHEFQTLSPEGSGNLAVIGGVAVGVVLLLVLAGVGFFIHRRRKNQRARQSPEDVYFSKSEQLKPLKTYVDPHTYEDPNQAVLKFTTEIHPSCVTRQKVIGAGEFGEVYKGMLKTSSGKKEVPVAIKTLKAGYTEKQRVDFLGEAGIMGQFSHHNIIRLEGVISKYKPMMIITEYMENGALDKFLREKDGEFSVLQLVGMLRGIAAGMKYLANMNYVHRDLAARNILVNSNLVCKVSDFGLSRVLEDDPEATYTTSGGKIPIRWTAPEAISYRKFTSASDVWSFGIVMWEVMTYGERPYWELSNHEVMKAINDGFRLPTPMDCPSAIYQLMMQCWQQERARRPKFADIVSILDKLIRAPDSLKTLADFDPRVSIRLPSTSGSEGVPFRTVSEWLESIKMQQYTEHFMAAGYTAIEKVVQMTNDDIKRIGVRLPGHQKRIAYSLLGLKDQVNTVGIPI

**Q.** What does the source list for `Cc1ccc2c(Nc3cccc(Cl)c3F)nccc2c1NC(=O)c1csc2c(N)ncnc12` [Belvarafenib, 4-amino-N-(1-((3-chloro-2-fluorophenyl)amino)-6-methylisoquinolin-5-yl)thieno[3,2-d]pyrimidine-7-carboxamide]?
**A.** tumor burden by bioluminescence imaging (BLI) ([1]; 5 mg/kg p.o. QD): more effective tumor inhibition than the vehicle; Maximum weight loss ([1]; 5 mg/kg p.o. QD, day 39): 33.0 (day 39) %; mOS (median overall survival) ([1]; 5 mg/kg p.o. QD): 34.5 days; tumor burden by bioluminescence imaging (BLI) ([1]; 15 mg/kg p.o. QD): markedly delayed tumor growth as compared to the vehicle; mOS (median overall survival) ([1]; 15 mg/kg p.o. QD): 70.0 days; day from which clinical signs of debility due to tumor growth occurred ([1]; group 2 (5 mg/kg)): 14 days; day from which clinical signs of debility due to tumor growth occurred ([1]; group 3 (15 mg/kg)): 16 days; day of administration from which hair growth showed ([1]; groups 2 and 3 (5 and 15 mg/kg)): 7 days; inhibition at 1 µM (EPHB2): > 90%; pIC50 (RAF-1 (CRAF)): 8.70; inhibition at 1 µM (EPHA2): > 90%
